Experimental data taken from publication PMC8460535, “Novel serotonin 5-HT2A receptor antagonists derived from 4-phenylcyclohexane-5-spiro-and 5-methyl-5-phenyl-hydantoin, for use as potential antiplatelet agents” (Pharmacological Reports, 2021).
Values joined by “and” are separate entries in the source; they are usually repeats but may differ in a detail not shown here. Identical values can stand only once. Like-named read-outs stand apart in the source and are kept apart here. Blank lines part the entries; values can stand above or below the compound they belong to.

Assays:
[1] = target: T1, 5-HT2A receptors in rat aorta (Rattus norvegicus, UniProt P14842); assay: Functional bioassay at 5-HT2A receptors in isolated rat aorta (5-HT-induced contraction); type: cell-based; conditions: single antagonist concentration, 30 min incubation, read-out: pKB ± SEM a (converted)
T1 construct: Isolated rat aorta was used to determine the antagonistic activity of studied compounds for 5HT2A-receptors; from tissue; host or cells: aortic rings of male Wistar rats, denuded of the endothelium
T1 sequence (P14842 whole entry): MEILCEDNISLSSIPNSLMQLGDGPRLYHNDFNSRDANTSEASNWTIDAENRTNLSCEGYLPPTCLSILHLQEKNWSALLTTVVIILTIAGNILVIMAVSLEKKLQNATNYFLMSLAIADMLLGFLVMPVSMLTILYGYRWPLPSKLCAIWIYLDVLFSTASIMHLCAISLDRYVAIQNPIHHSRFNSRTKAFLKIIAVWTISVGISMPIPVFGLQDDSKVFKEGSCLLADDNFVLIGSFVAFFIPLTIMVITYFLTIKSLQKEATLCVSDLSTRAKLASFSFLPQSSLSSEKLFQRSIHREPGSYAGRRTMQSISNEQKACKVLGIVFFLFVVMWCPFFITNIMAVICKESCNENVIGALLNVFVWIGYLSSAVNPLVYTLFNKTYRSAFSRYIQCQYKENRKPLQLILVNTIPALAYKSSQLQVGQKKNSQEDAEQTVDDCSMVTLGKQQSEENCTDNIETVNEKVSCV
Procedure: Isolated rat aorta was used to determine the antagonistic activity of studied compounds for 5HT2A-receptors. The male Wistar rats weighting 200–350 g were anesthetized with thiopental sodium (75 mg/kg i.p.) and the aorta was dissected and placed in a Krebs–Henseleit solution (NaCl 118 mM, KCl 4.7 mM, CaCl2 2.25 mM, MgSO4 1.64 mM, KH2PO4 1.18 mM, NaHCO3 24.88 mM, glucose 10 mM, C3H3O3Na 2.2 mM, EDTA 0.05 mM), denuded of the endothelium, cleaned of surrounding fat tissues and cut into 4-mm-long rings. The aortic rings were incubated in 30 ml chambers filled with a Krebs–Henseleit solution at 37 °C and pH 7.4 with constant oxygenation (O2/CO2, 19:1). Two stainless steel stirrups were inserted through the lumen of each aortic segment: one stirrup was attached to the bottom of the chamber and the other to an isometric FDT10-A force–displacement transducer (BIOPAC Systems, Inc., COMMAT Ltd., Turkey). The aortic rings were stretched and maintained at optimal tension of 2 g and allowed to equilibrate for 2 h.
After the equilibration period, the aortic rings were contracted to maximal tension with KCl (60 mM). The depolarizing solution KCl (60 mM) was obtained by equimolar substitution of […]. Then the cumulative concentration–response curves to 5-HT were determined in the absence and presence of antagonist. Tissues were incubated with antagonists for 30 min.
Concentration–response curves were analyzed using GraphPad Prism 6.0 software (GraphPad Software Inc., San Diego, CA, USA). […] Data are the mean ± SEM of three separate experiments. The affinity was estimated with the equation pKB = log(concentration ratio–1)-log(molar antagonist concentration), where the concentration ratio is the ratio of equi-effective agonist concentrations in the absence and in the presence of the antagonist.

[2] = test system: whole rat blood aggregation induced by 5-HT and collagen; assay: In vitro whole rat blood aggregation induced by 5-HT and sub-threshold collagen; type: cell-based; conditions: 5-HT 30 μM and collagen 0.8 μg/ml, read-out: b (5-HT + collagen) IC50
Procedure: (§1) In vitro aggregation assays were performed using freshly drawn whole rat blood with a Multiplate platelet function analyzer (Roche Diagnostic), the five-channel aggregometer based on measurements of electric impedance. Blood was collected from carotid arteries with a hirudin blood tube (Roche Diagnostic). 300 μl of hirudin anticoagulated blood was mixed with 300 μl prewarmed isotonic saline solution containing studied compound or vehicle (deionized water or DMSO 0.1%) and preincubated for 3 min at 37 °C with continuous stirring. Aggregation was induced by adding collagen (Hyphen-Biomed, France) (final concentration 1.6 µg/ml), 5-HT (30 µM) and sub-threshold concentration of collagen (0.8 µg/ml), 5-HT (6 µM) and sub-threshold concentration of ADP (ADP test, Roche Diagnostic), (1.6 µM). The aggregation process was recorded for 6 min. Ketanserin (ketanserin ( +) tartrate salt, Sigma-Aldrich, Germany), sarpogrelate (sarpogrelate hydrochloride, Sigma-Aldrich, Germany), and aspirin (Tocris, UK) were used as reference compounds. The Multiplate software analyzed the area under the curve (AUC) of the clotting process of each measurement and calculated the mean values. Each concentration of studied compounds was tested at least three times. The exact sample size (n value) is presented on Figs. 2–4. Concentration-inhibition curves were constructed and analyzed by non-linear curve fitting using GraphPad Prism 6.0 (GraphPad Software Inc., San Diego, CA, USA).

[3] = target: T2, human 5-HT2A receptor (Homo sapiens, UniProt P28223); assay: 5-HT2A receptor radioligand binding assay ([3H]-ketanserin, CHO-K1 membranes); conditions: read-out: Ki [nM] ± SEM
T2 construct: purchased PerkinElmer; host or cells: CHO-K1 cells, stably transfected
T2 sequence (P28223 whole entry): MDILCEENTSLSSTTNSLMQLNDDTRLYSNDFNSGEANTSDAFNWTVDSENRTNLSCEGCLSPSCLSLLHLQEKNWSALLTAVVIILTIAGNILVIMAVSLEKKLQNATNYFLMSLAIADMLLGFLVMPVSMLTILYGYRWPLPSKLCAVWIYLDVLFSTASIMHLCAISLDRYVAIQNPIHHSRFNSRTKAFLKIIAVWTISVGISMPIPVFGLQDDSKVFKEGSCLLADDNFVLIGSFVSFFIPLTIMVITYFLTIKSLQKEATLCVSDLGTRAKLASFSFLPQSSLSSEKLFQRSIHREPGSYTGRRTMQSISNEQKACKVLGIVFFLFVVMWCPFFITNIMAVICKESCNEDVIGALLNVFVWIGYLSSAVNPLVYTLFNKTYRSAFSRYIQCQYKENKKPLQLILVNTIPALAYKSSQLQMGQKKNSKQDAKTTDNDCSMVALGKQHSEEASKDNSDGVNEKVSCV
Procedure: Stock solutions of tested compounds (10 mM) were prepared in DMSO. […] Each compound was tested in eight concentrations from 10^–5 to 10^–12 M (final concentration).
Radioligand binding was performed using membranes from CHO-K1 cells stably transfected with the human 5-HT2A receptor (PerkinElmer). All assays were carried out in duplicates. Data were fitted to a one-site curve-fitting equation with Prism 6 (GraphPad Software) and Ki values were estimated from the Cheng − Prusoff equation. The full description of this assay is in Supplementary material.
Mianserin (10 μM) was used to define nonspecific binding. […] The reaction was terminated by rapid filtration through GF/B filter mate presoaked with 0.5% polyethyleneimine for 30 minutes. Ten rapid washes with 200 µl 50 mM Tris buffer (4°C, pH 7.4) were performed using automated harvester system Harvester-96 MACH III FM (Tomtec). […] Radioactivity was counted in MicroBeta2 scintillation counter (PerkinElmer).

[4] = target: T2, human 5-HT2A receptor; assay: Aequorin luminescence-based intracellular calcium assay in CHO cells expressing human 5-HT2A; type: cell-based; conditions: cells expressing human 5-HT2A receptors, antagonist mode vs α-methylserotonin 30 nM; read-out: pKB ± SEM b (converted)
Procedure: Tested and reference compounds were dissolved in DMSO at a concentration of 10^–2 M. Serial dilutions were prepared in 96-well microplate in assay buffer and eight to ten concentrations were tested.
A cellular aequorin-based functional assay was performed with recombinant Chinese hamster ovary cells expressing mitochondrially targeted aequorin, human G-protein-coupled receptors, and the promiscuous G protein α16 for 5-HT2A. The full description of this assay is in Supplementary materials.
A cellular aequorin-based functional assay was performed with recombinant Chinese hamster ovary cells expressing mitochondrially targeted aequorin, human G-protein-coupled receptors and the promiscuous G protein α16 for 5-HT2A. After thawing, cells were transferred to assay buffer (Dulbecco's Modified Eagle Medium/HAM’s F12 with 0.1% protease free bovine serum albumin) and centrifuged. The cell pellet was resuspended in assay buffer and coelenterazine h was added at final concentrations of 5 μM. The cells suspension was incubated at 16°C, protected from light with constant agitation for 16 h and then diluted with assay buffer to the concentration of 120,000 cells/ml. After 1 h of incubation, 50 μl of the cells suspension was dispensed using automatic injectors built into the radiometric and luminescence plate counter MicroBeta2 LumiJET (PerkinElmer, USA) into white opaque 96-well microplates preloaded with test compounds. Immediate light emission generated following calcium mobilization was recorded for 30 s. In antagonist mode, after 30 min of incubation the reference agonist was added to the above assay mix and light emission was recorded again. Final concentration of the reference agonist was equal to EC80 of α-methylserotonin (30 nM).

[5] = test system: whole rat blood aggregation induced by 5-HT and ADP; assay: In vitro whole rat blood aggregation induced by 5-HT and sub-threshold ADP; type: cell-based; conditions: for IC50: 5-HT 6 μM and ADP 1.6 μM, na = not active, read-out: c (5-HT + ADP) IC50
Procedure: as §1

[6] = target: 5-HT2A receptor; conditions: cited from earlier work
[7] = test system: whole rat blood aggregation induced by collagen; assay: In vitro whole rat blood aggregation induced by collagen (Multiplate); type: cell-based; conditions: collagen 1.6 μg/ml, na = not active
Procedure: as §1

[8] = test system: whole rat blood aggregation induced by 5-HT and ADP; set-up: method as in PMID 29111111; conditions: 5-HT 6 μM and ADP 1.6 μM, already published, read-out: c (5-HT + ADP) IC50; cited from earlier work
[9] = literature values, no reference given, read-out: 5-HT2A: Ki of conventional antagonists

Kb [1]: 37.2 nM
IC50 [2]: 91300 ± 7100 nM
Ki [3]: 21 ± 1.7 nM
Kb [4]: 175 nM
IC50 [5]: 140000 ± 44600 nM
Structure (SMILES): O=C1NC2(CCC(c3ccccc3)CC2)C(=O)N1CCCN1CCN(c2ccc(F)cc2)CC1 (stereo not shown) [Compound 11, 3-(3-(4-(4-Fluorophenyl)piperazin-1-yl)propyl)-8-phenyl-1,3-diazaspiro[4.5]decane-2,4-dione]

Kb [1]: 501 nM
IC50 [2]: 94300 ± 53500 nM
Ki [3]: 297 ± 19.9 nM
IC50 [5]: 119000 ± 32100 nM
Structure (SMILES): O=C1NC2(CCC(c3ccccc3)CC2)C(=O)N1CCCN1CCN(c2cccc(F)c2)CC1 (stereo not shown) [Compound 10, 3-(3-(4-(3-Fluorophenyl)piperazin-1-yl)propyl)-8-phenyl-1,3-diazaspiro[4.5]decane-2,4-dione]

IC50 [2]: 1300 nM
IC50 [7]: 32100 ± 3000 nM
Structure (SMILES): O=C(c1ccc(F)cc1)C1CCN(CCn2c(=O)[nH]c3ccccc3c2=O)CC1 [Ketanserin, reference compound]
IC50 [8]: 9700 ± 2100 nM
Ki [6, 9]: 2 nM

Kb [1]: 95.9 nM
IC50 [2]: 139000 ± 16100 nM
Ki [3]: 220 ± 19.6 nM
Kb [4]: 1990 nM
Structure (SMILES): O=C1NC2(CCC(c3ccccc3)CC2)C(=O)N1CCCN1CCN(c2ccccc2F)CC1 (stereo not shown) [Compound 9, 3-(3-(4-(2-Fluorophenyl)piperazin-1-yl)propyl)-8-phenyl-1,3-diazaspiro[4.5]decane-2,4-dione]

melting point: 243 to 245 °C
Structure (SMILES): O=C1NC2(CCC(c3ccccc3)CC2)C(=O)N1CCN1CCN(C(c2ccccc2)c2ccccc2)CC1 (stereo not shown) [Compound 8, 3-(2-(4-Benzhydrylpiperazin-1-yl)ethyl)-8-phenyl-1,3-diazaspiro[4.5]decane-2,4-dione]

Ki [3]: 2580 ± 302 nM
melting point: 203 to 205 °C
Structure (SMILES): O=C(c1ccc(F)cc1)N1CCN(CCCN2C(=O)NC3(CCC(c4ccccc4)CC3)C2=O)CC1 (stereo not shown) [Compound 12, 3-(3-(4-(4-Fluorobenzoyl)piperazin-1-yl)propyl)-8-phenyl-1,3-diazaspiro[4.5]decane-2,4-dione]

Further lines, the compound ahead of its results:

Structure (SMILES): O=S1(=O)c2cccc3cccc(c23)N1CCCN1CCN(c2ccc(F)cc2)CC1 [fananserin, reference compound]
Ki [6, 9]: 0.37 nM

Structure (SMILES): CC1(c2ccccc2)NC(=O)N(CCCN2CCN(c3ccccc3)CC2)C1=O (stereo not shown) [compound B]
Ki ([6]; 5-HT2A receptors, previous studies, read-out: Ki (5-HT2A) of earlier hydantoin leads): 69 nM

Structure (SMILES): CC1(c2ccccc2)NC(=O)N(CCCN2CCN(C(=O)c3ccc(F)cc3)CC2)C1=O (stereo not shown) [Compound 6, 3-(3-(4-(4-Fluorobenzoyl)piperazin-1-yl)propyl)-5-methyl-5-phenylimidazolidine-2,4-dione]
melting point: 72 to 74 °C

Structure (SMILES): CC1(c2ccccc2)NC(=O)N(CCCN2CCN(c3cccc(F)c3)CC2)C1=O (stereo not shown) [Compound 4, 3-(3-(4-(3-Fluorophenyl)piperazin-1-yl)propyl)-5-methyl-5-phenylimidazolidine-2,4-dione]
Kb [1]: 440 nM
IC50 [2]: 153000 ± 26400 nM
Ki [3]: 340 ± 57 nM
Kb [4]: 9230 nM
IC50 [5]: 83100 ± 8100 nM

Structure (SMILES): CC1(c2ccccc2)NC(=O)N(CCN2CCN(C(c3ccccc3)c3ccccc3)CC2)C1=O (stereo not shown) [Compound 2, 3-(2-(4-Benzhydrylpiperazin-1-yl)ethyl)-5-methyl-5-phenylimidazolidine-2,4-dione]
Kb [1]: 690 nM
IC50 [2]: 140000 ± 18900 nM
Ki [3]: 450 ± 43.9 nM
Kb [4]: 1970 nM
inhibitory effect on ADP- and 5-HT-induced blood aggregation ([5]; at a concentration of 200 μM): did not exhibit any significant inhibitory effect

Structure (SMILES): CC1(c2ccccc2)NC(=O)N(CCCN2CCN(c3ccccc3F)CC2)C1=O (stereo not shown) [Compound 3, 3-(3-(4-(2-Fluorophenyl)piperazin-1-yl)propyl)-5-methyl-5-phenylimidazolidine-2,4-dione]
Kb [1]: 216 nM
IC50 [2]: 17400 ± 10900 nM
Ki [3]: 516 ± 52 nM
Kb [4]: ~175 nM and 175 nM
IC50 [5]: 37900 ± 6500 nM

Structure (SMILES): CC1(c2ccccc2)NC(=O)N(CCN2CCN(C(=O)c3ccc(F)cc3)CC2)C1=O (stereo not shown) [Compound 1, 3-(2-(4-(4-Fluorobenzoyl)piperazin-1-yl)ethyl)-5-methyl-5-phenylimidazolidine-2,4-dione]
melting point: 117 to 119 °C

Structure (SMILES): O=C(c1ccc(F)cc1)N1CCN(CCN2C(=O)NC3(CCC(c4ccccc4)CC3)C2=O)CC1 (stereo not shown) [Compound 7, 3-(2-(4-(4-Fluorobenzoyl)piperazin-1-yl)ethyl)-8-phenyl-1,3-diazaspiro[4.5]decane-2,4-dione]
melting point: 224 to 226 °C

Structure (SMILES): CC1(c2ccccc2)NC(=O)N(CCCN2CCN(c3ccc(F)cc3)CC2)C1=O (stereo not shown) [Compound 5, 3-(3-(4-(4-Fluorophenyl)piperazin-1-yl)propyl)-5-methyl-5-phenylimidazolidine-2,4-dione]
Kb [1]: 110 nM
IC50 [2]: 127000 ± 32700 nM
Ki [3]: 48 ± 4.9 nM
Kb [4]: 9290 nM
IC50 [5]: 124000 ± 36200 nM

Structure (SMILES): CC(=O)Oc1ccccc1C(=O)O [Aspirin]
IC50 [7]: 14500 ± 1100 nM
